The source made the active and inactive calls. The rule behind the calls is not given here.
Columns and labels:
[1] = target: T1, Histone deacetylase 11 (Homo sapiens) (UniProt Q96DB2); test: Activation of HDAC11 using Fluor-de-Lys as substrate at 10 uM by spectrofluorometry
T1 sequence (whole entry): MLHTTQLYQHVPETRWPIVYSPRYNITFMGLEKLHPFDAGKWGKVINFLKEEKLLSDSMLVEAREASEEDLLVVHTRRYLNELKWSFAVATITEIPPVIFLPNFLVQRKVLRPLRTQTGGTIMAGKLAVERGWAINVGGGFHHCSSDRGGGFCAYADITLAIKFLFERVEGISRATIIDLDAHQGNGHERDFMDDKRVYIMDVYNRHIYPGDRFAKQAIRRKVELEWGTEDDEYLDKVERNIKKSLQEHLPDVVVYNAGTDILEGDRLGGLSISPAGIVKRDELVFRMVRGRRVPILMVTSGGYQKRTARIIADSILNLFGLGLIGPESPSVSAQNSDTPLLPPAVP

[2] = target: T2, Polyamine deacetylase HDAC10 (Homo sapiens) (UniProt Q969S8); test: Inhibition of HDAC10 using Fluor-de-Lys as substrate at 100 uM by spectrofluorometry
T2 sequence (whole entry): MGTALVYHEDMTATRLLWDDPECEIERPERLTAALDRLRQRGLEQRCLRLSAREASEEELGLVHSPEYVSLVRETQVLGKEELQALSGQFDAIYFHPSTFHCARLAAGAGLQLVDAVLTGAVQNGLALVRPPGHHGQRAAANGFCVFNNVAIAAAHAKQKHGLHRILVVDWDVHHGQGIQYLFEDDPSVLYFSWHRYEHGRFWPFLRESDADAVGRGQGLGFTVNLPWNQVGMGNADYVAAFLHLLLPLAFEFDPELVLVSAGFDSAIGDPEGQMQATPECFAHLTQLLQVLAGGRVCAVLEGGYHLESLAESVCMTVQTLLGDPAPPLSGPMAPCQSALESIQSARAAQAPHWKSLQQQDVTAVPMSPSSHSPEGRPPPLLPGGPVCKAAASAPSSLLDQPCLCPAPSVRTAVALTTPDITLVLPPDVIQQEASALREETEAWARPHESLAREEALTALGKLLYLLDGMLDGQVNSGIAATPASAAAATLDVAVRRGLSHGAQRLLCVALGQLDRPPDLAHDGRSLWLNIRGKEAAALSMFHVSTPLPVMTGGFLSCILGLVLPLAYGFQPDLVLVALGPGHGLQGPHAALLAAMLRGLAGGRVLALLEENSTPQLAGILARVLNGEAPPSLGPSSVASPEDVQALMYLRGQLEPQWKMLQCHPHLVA

[3] = target: Histone deacetylase 2 (Homo sapiens) (UniProt Q92769); test: Activation of HDAC2 using Fluor-de-Lys as substrate at 100 uM by spectrofluorometry
[4] = target: Histone deacetylase 4 (Homo sapiens) (UniProt P56524); test: Activation of HDAC4 using trifluoroacetyl-lysine containing fluorogenic substrate at 10 uM by spectrofluorometry
[5] = target: Histone deacetylase 4 (Homo sapiens) (UniProt P56524); test: Activation of HDAC4 using trifluoroacetyl-lysine containing fluorogenic substrate at 100 uM by spectrofluorometry
[6] = target: T1, Histone deacetylase 11 (Homo sapiens); test: Activation of HDAC11 using Fluor-de-Lys as substrate at 100 uM by spectrofluorometry
[7] = target: T3, Protein deacetylase HDAC6 (Homo sapiens) (UniProt Q9UBN7); test: Activation of HDAC6 using Fluor-de-Lys as substrate at 100 uM by spectrofluorometry
T3 sequence (whole entry): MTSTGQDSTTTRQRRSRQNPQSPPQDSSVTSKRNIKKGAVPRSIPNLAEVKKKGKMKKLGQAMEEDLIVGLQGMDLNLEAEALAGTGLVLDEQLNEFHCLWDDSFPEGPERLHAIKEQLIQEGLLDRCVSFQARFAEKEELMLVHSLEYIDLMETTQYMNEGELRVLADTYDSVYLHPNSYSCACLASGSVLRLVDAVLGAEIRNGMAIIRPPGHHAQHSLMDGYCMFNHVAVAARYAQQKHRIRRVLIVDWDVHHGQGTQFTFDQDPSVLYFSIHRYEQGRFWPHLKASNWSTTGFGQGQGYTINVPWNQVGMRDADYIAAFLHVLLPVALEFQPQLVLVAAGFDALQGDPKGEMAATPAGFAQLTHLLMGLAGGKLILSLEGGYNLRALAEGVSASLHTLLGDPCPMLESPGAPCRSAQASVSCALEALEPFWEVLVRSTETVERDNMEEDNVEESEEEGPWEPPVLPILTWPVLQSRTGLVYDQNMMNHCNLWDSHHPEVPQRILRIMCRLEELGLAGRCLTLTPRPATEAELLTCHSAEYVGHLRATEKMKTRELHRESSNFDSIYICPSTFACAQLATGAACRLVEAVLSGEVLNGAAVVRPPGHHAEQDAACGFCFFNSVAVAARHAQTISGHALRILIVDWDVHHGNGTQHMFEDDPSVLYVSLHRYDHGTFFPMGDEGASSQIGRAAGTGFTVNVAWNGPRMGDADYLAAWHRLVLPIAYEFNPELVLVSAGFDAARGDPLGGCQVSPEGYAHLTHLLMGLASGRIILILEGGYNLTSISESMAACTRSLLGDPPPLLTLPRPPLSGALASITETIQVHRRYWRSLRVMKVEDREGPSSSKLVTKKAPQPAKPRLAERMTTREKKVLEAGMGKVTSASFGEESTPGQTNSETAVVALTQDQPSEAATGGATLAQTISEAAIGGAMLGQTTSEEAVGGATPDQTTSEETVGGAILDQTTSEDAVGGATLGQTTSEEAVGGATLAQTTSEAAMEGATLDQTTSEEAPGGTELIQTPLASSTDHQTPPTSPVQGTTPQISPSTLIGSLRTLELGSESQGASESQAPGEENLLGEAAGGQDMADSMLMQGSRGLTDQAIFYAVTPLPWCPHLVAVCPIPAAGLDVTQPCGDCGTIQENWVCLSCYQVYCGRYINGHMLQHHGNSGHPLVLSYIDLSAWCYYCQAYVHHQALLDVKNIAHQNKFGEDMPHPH

[8] = target: T3, Protein deacetylase HDAC6 (Homo sapiens); test: Inhibition of HDAC6 using Fluor-de-Lys as substrate at 100 uM by spectrofluorometry
[9] = target: T4, Histone deacetylase 8 (Homo sapiens) (UniProt Q9BY41); test: Activation of recombinant human HDAC8 assessed as ratio of the initial rate of reaction in the absence and presence of compound using Fluor-de-Lys as substrate at 10 uM by spectrofluorometry
T4 sequence (whole entry): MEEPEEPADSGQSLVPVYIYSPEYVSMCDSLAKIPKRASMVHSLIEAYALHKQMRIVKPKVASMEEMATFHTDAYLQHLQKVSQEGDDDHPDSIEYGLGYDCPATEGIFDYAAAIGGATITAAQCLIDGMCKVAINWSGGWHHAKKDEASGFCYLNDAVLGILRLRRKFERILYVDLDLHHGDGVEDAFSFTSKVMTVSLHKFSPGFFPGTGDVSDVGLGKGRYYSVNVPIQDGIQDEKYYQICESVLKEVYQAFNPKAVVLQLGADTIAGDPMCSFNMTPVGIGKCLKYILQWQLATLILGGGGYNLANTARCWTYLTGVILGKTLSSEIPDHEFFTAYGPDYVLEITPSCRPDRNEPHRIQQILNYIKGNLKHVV

[10] = target: Histone deacetylase 2 (Homo sapiens) (UniProt Q92769); test: Inhibition of HDAC2 using Fluor-de-Lys as substrate at 100 uM by spectrofluorometry
[11] = target: Histone deacetylase 3 (Homo sapiens) (UniProt O15379); test: Activation of HDAC3 using Fluor-de-Lys as substrate at 100 uM by spectrofluorometry
[12] = target: Histone deacetylase 3 (Homo sapiens) (UniProt O15379); test: Inhibition of HDAC3 using Fluor-de-Lys as substrate at 100 uM by spectrofluorometry
[13] = target: T2, Polyamine deacetylase HDAC10 (Homo sapiens); test: Activation of HDAC10 using Fluor-de-Lys as substrate at 100 uM by spectrofluorometry
[14] = target: Histone deacetylase 2 (Homo sapiens) (UniProt Q92769); test: Activation of HDAC2 using Fluor-de-Lys as substrate at 10 uM by spectrofluorometry
[15] = target: T3, Protein deacetylase HDAC6 (Homo sapiens); test: Activation of HDAC6 using Fluor-de-Lys as substrate at 10 uM by spectrofluorometry
[16] = target: Histone deacetylase 4 (Homo sapiens) (UniProt P56524); test: Inhibition of HDAC4 using trifluoroacetyl-lysine containing fluorogenic substrate at 100 uM by spectrofluorometry
[17] = target: Histone deacetylase 3 (Homo sapiens) (UniProt O15379); test: Activation of HDAC3 using Fluor-de-Lys as substrate at 10 uM by spectrofluorometry
[18] = target: T1, Histone deacetylase 11 (Homo sapiens); test: Inhibition of HDAC11 using Fluor-de-Lys as substrate at 100 uM by spectrofluorometry
[19] = target: Histone deacetylase 1 (Homo sapiens) (UniProt Q13547); test: Inhibition of HDAC1 using Fluor-de-Lys as substrate at 100 uM by spectrofluorometry
[20] = target: T2, Polyamine deacetylase HDAC10 (Homo sapiens); test: Activation of HDAC10 using Fluor-de-Lys as substrate at 10 uM by spectrofluorometry
[21] = target: Histone deacetylase 1 (Homo sapiens) (UniProt Q13547); test: Activation of HDAC1 using Fluor-de-Lys as substrate at 10 uM by spectrofluorometry
[22] = target: Histone deacetylase 1 (Homo sapiens) (UniProt Q13547); test: Activation of HDAC1 using Fluor-de-Lys as substrate at 100 uM by spectrofluorometry
[23] = Solubility of the compound at 100 uM; format: physicochemical
[24] = target: T4, Histone deacetylase 8 (Homo sapiens); test: Activation of recombinant human HDAC8 using Fluor-de-Lys as substrate by spectrofluorometry
[25] = target: T4, Histone deacetylase 8 (Homo sapiens); test: Activation of recombinant human HDAC8 assessed as increase in Kcat using Fluor-de-Lys as substrate by spectrofluorometry relative to control
[26] = target: T4, Histone deacetylase 8 (Homo sapiens); test: Activation of recombinant human HDAC8 assessed as increase in ratio of Kcat to Km using Fluor-de-Lys as substrate by spectrofluorometry relative to control
[27] = target: T4, Histone deacetylase 8 (Homo sapiens); test: Activation of recombinant human HDAC8 assessed as decrease in Km using Fluor-de-Lys as substrate by spectrofluorometry
[28] = target: T4, Histone deacetylase 8 (Homo sapiens); test: Maximum activation of recombinant human HDAC8 using Fluor-de-Lys as substrate by spectrofluorometry relative to control

Histone deacetylase 3 (Homo sapiens), sequence (O15379 whole entry): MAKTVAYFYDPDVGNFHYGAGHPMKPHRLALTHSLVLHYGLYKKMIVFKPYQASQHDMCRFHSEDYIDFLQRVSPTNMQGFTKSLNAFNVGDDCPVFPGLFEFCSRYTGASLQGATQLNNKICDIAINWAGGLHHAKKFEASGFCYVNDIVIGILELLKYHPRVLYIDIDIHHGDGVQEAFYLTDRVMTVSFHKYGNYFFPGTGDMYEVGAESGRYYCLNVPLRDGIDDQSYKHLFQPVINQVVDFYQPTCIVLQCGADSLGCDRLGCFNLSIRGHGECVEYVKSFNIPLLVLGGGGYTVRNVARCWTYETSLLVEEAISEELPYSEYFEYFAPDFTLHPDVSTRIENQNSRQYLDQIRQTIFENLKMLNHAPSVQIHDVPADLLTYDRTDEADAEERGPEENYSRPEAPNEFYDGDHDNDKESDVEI
Histone deacetylase 2 (Homo sapiens), sequence (Q92769 whole entry): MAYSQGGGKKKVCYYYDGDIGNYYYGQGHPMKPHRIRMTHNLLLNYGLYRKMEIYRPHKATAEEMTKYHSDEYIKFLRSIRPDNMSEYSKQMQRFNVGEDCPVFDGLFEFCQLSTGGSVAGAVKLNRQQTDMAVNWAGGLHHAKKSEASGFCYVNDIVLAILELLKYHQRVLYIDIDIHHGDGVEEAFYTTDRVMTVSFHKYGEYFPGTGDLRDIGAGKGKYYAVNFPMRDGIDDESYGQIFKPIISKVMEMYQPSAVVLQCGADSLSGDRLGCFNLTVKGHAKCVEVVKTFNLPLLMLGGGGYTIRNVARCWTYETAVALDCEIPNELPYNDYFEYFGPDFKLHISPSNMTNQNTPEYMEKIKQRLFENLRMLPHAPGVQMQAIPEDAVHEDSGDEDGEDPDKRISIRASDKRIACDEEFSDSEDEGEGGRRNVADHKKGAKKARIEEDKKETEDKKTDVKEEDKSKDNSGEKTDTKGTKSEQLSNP
Histone deacetylase 4 (Homo sapiens), sequence (P56524 whole entry): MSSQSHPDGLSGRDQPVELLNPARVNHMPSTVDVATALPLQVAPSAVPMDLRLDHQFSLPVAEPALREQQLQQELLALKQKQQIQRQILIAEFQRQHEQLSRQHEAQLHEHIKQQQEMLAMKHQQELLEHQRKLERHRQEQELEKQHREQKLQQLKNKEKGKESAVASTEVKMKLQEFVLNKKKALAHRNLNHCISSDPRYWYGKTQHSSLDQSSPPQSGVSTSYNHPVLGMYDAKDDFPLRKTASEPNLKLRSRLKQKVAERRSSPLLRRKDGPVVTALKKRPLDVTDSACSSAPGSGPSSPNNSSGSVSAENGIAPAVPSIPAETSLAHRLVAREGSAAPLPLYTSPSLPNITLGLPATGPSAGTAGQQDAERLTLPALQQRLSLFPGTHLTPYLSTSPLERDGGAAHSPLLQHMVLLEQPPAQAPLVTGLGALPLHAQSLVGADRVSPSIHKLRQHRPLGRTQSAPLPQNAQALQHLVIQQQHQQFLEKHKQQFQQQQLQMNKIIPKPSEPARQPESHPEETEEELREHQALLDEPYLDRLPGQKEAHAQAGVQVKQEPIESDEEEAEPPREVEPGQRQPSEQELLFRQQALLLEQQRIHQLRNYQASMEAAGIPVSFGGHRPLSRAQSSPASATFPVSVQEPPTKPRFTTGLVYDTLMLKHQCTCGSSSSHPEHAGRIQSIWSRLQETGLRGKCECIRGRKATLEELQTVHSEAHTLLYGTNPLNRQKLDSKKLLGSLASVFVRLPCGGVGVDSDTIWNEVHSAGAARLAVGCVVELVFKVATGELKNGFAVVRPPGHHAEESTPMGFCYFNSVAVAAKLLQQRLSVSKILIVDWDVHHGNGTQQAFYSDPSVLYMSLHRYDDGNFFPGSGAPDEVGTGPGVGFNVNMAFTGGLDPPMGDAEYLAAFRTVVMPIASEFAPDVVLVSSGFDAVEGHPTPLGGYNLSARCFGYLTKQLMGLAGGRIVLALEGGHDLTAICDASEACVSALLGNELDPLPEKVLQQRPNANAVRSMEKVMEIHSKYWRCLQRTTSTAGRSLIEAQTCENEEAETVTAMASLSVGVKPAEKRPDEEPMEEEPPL
Histone deacetylase 1 (Homo sapiens), sequence (Q13547 whole entry): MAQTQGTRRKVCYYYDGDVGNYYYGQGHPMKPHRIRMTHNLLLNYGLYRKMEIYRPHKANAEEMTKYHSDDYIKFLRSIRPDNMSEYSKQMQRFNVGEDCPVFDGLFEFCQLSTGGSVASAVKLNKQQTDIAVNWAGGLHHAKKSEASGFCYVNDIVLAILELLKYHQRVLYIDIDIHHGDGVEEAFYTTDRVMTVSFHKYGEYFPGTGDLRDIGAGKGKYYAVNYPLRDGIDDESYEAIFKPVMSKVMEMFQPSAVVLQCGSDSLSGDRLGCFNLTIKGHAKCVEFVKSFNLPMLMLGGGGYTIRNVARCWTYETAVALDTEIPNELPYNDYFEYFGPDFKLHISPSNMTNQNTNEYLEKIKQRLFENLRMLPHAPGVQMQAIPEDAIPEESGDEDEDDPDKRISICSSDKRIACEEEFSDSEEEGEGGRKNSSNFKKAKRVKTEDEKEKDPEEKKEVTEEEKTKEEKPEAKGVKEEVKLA

| Activity [1] | inhibition [2] | Activity [3] | Activity [4] | Activity [5] | Activity [6] | Activity [7] | inhibition [8] | fold change (FC) [9] | inhibition [10] | Activity [11] | inhibition [12] | Activity [13] | Activity [14] | Activity [15] | inhibition [16] | Activity [17] | inhibition [18] | inhibition [19] | Activity [20] | Structure (SMILES) | other results |
| --- | --- | --- | --- | --- | --- | --- | --- | --- | --- | --- | --- | --- | --- | --- | --- | --- | --- | --- | --- | --- | --- |
| inactive | inactive | inactive | inactive | inactive | inactive | inactive | inactive | 3.5 | inactive | inactive | inactive | inactive | inactive | inactive | inactive | inactive | inactive | 5% | inactive | O=C(NC(=S)Nc1ccccc1)c1ccccc1F |  |
| inactive | inactive | inactive | inactive | inactive | inactive | inactive | inactive | 5.6 | inactive | inactive | inactive | inactive | inactive | inactive | inactive | inactive | inactive | 5% | inactive | O=C(NC(=S)NC1CCCCC1)c1ccccc1 |  |
| inactive | inactive |  | inactive | inactive | inactive | inactive | inactive | 1.2 | 7% |  | 5% | inactive |  | inactive | inactive |  | inactive | inactive | inactive | O=C(NC(=S)NCc1ccc(C(F)(F)F)cc1)c1ccccc1 | Activity [21]: inactive; Activity [22]: inactive |
|  |  |  | inactive | inactive |  |  |  | 2 |  |  |  |  |  |  |  |  |  |  |  | Cc1cc(=O)oc2cc(NC(=S)NC(=O)c3ccccc3)ccc12 | solubility [23]: Insoluble |
| inactive | inactive | inactive | inactive | inactive | inactive | inactive | inactive | 3.3 | inactive | inactive | inactive | inactive | inactive | inactive | inactive | inactive | inactive | 5% | inactive | O=C(NC(=S)NCc1ccccc1)c1ccccc1 |  |
|  | 15% |  | inactive | inactive |  |  | 30% | 12 | 8% |  | 6% |  |  |  | inactive |  | 14% | 8% |  | O=C(NC(=S)Nc1ccccc1)c1ccccc1 | Ka [24]: 12.4 µM; fold change (FC) [25]: 5; fold change (FC) [26]: 16; fold change (FC) [27]: 3; fold change (FC) [28]: 26.8 |
|  | inactive | inactive | inactive | inactive |  | inactive | inactive | 2 | inactive | inactive | inactive | inactive | inactive | inactive | inactive | inactive | 6% | inactive | inactive | O=C(NC(=S)NCCc1ccccc1)c1ccccc1 | Activity [21]: inactive; Activity [22]: inactive |

Reference: ChEMBL document CHEMBL1833857, “Histone deacetylase activators: N-acetylthioureas serve as highly potent and isozyme selective activators for human histone deacetylase-8 on a fluorescent substrate” (Bioorg Med Chem Lett, 2011)
